Measured values as given in patent publication US6841661B2, “Glycopeptide antibacterial compounds, compositions containing same and methods of using same” (Princeton Univerisity, priority 1999, dated 2005).
Converted amounts (≈) assume the structure as drawn. “And” between values parts separate entries of the source, which are not always exact repeats. Equal entries are not always repeated. Where two headings read alike, the source gives them in different places.

Columns and labels:
[1] = test system: S. aureus MB 2985; assay: MIC by microdilution in Mueller-Hinton broth (in vivo study); type: cell-based; conditions: inoculum 1.4 × 10^5 cfu/mL in cation adjusted MHB
Description: The MIC is determined by microdilution in Mueller-Hinton broth (MHB) according to the National Committee for Clinical Laboratory Standards guidelines after incubation for 24 hours. Enterococci are tested in cation-supplemented Mueller-Hinton broth at 1.4×10^5 cfu/ml. MIC is defined as the lowest concentration of antibiotic, which inhibits visible growth.

[2] = test system: MRSA MH 76; assay: In vitro MIC panel assay (NCCLS broth microdilution); type: cell-based, Staphylococcus aureus; conditions: MRSA MH 76; MH II broth
Description: (§1) National Committee for Clinical Laboratory Standards (NCCLS) guidelines [Methods for Dilution Antimicrobial Susceptibility Tests for Bacteria that Grow Aerobically-Fourth Edition; Approved Standard (NCCLS Document M7-A4, January 1997)] are used to establish the assay, although variations are made to optimize the published method according to the specific needs of the present investigation.
(§2) The test panel currently includes eight enterococci and 13 staphylococci, which are selected based upon their antibiotic susceptibility profiles. The methicillin-sensitive Staphylococcus aureus (MSSA) strain MB2985 (Smith isolate) is used to assesses the potential for serum protein binding of the compounds. The paired Gram-negative strains ASP #49 (envA-) and ASP #50 (envA+) (M. Salvatore/N. Lee) are included to judge membrane effects. Table 3 presents a detailed description of the strains included in the panel, including some of the sources of the strains of bacteria.
The glycopeptide antibiotic teicoplanin is included whenever possible. […]
The number of CFU/mL is determined on BHI agar plates, although this is not done routinely because titers of overnight cultures are relatively constant. […]

[3] = test system: MRCNS CL 202 (S. haem.); assay: as above; type: cell-based; conditions: MRCNS CL 202 (S. haem.); MH II broth
Description: as §1, §2
(§3) The glycopeptide antibiotic teicoplanin is included whenever possible.
(§4) TSB, containing 10% HS* for vancomycin intermediate S. aurcus/methicillin-resistant S. aureus (VISA/MRSA) strains, is inoculated from an appropriate source (frozen broth or agar slant) and grown approximately 17 hr at 35° C. with shaking at 220 rpm. Cultures are grown in tubes with a volume of 5 ml for enterococci and 2 ml for all other strains.
(§5) Four milliliter (4 ml) overnight culture is added to 36 ml physiological saline to obtain tenfold dilutions (enterococci). Overnight culture (0.4 ml) is added to 39.6 ml saline to obtain 100-fold dilutions (all strains except enterococci). Diluted cultures are maintained on ice until time of inoculation of test plates.
(§6) The number of CFU/mL is determined on BHI agar plates, although this is not done routinely because titers of overnight cultures are relatively constant. The test media include: • BHI for enterococci and VISA/MRSA; • MH II (i.e., cation-adjusted Mueller-Hinton broth) for MRS, MSS and E. coli.; • MH II+HSA for MSSA is prepared as follows: • a. 2×MHII+86mg/ml HSA • b. Dissolve 4.3 g HSA in 50 ml autoclaved 2x MH II. • c. pH to 7.0 by adding 2M MOPS, sodium. • d. Filter sterilize using 0.22 μm Coming cellulose acetate filter, used because of reported low protein binding. • e. 1×MH II+43 mg/ml HSA • f. Dilute the 2×medium twofold and filter as above. 5.8.6. Preparation of Test Plates
(§7) Using a Denley liquid handling system (or similar automatic device), 100 μ1×medium is added to each well in columns 2-12 of a 96-well microtiter dish. Using a multichannel pipettor, 100 μl 2×medium is added to each well in column 1. Plates may be filled on the day prior to assay, wrapped in plastic bags and refrigerated.
(§8) Vancomycin, Schering 29482, and teicoplanin are prepared on a weight per volume basis using 10 mM 3-(N-morpholino)propane-sulfonic acid (MOPS) buffer pH 7. Test compounds are received in solution in appropriate solvent (typically as 1 mg/ml in DMSO) or are dissolved in appropriate solvent prior to further dilution in 10 mM MOPS buffer, ph7. Consistent with NCCLS guidelines, antibiotics are handled aseptically but are not otherwise sterilized.
(§9) 100 μl appropriately diluted antibiotic solution is added to the first well of the designated row of the 96-well microtiter dish and serially diluted by twofold across the row using the Denley liquid handling system. With the aid of a Dynatech NEC 2000 inoculator, each well of the microtiter dish is inoculated with 1.5 μl diluted overnight culture, yielding approximately 1-5×10^6 CFU/ml for enterococci and approximately 3-7×10^5 CFU/ml for all other strains. Dishes are placed in stacks of no more than five, wrapped in plastic bags and incubated at 35° C. • Indication of result(s) type (% INH, IC50, Zone size, etc.) • MIC=minimum inhibitory concentration ps 5.8.9. Interpretation of the Results on the Basis of Activity […]

[4] = test system: MRCNS CL 3069 (S. epi.); assay: as above; type: cell-based; conditions: MRCNS CL 3069 (S. epi.); MH II broth
Description: as §1, §2, §3, §4, §5, §6, §7, §8, §9

[5] = test system: E. coli ASP #50 (envA+); assay: as above; type: cell-based; conditions: E. coli ASP #50 (envA+); MH II broth
Description: as §1, §2, §3, §4, §5, §6, §7, §8, §9

[6] = test system: E. coli ASP #49 (envA-); assay: as above; type: cell-based; conditions: E. coli ASP #49 (envA−); MH II broth
Description: as §1, §2, §3, §4, §5, §6, §7, §8, §9

[7] = Pharmacokinetic studies; type: in vivo; conditions: compared with compound 2; stated as and/or
[8] = test system: Staphylococcus aureus strain MB2985; assay: In vivo mouse methicillin-sensitive Staphylococcus aureus septicemia protection; parameters: species or system ICR female mice
Description: Selected compounds of the invention are tested in an in vivo mouse model. Single dose subcutaneous antibiotic protection from septicemic infections is measured as described by Gill, C. J., J. J. Jackson, L. Gerckens, B. Pelak, R. Thompson, J. Sundelof, H. Kropp and H. Rosen. Antimicrob. Agents Chemother. 42:1996-2001 (1998). Survival is monitored for seven days. ED50's and LD50's are determined by the method of Knudsen and Curtis. J. Am. Stat. Assoc. 42:282-296 (1947). Septicemia is induced in 20 gram ICR (derived from CD-I) female mice by intraperitoneal infection with Staphylococcus aureus strain MB2985. Infection is given i.p. in Brain Heart Broth (BHB) at an infectious inoculum of 1.8×10^7 cfu/mouse. Drug is administered subcutaneously immediately after the infection is initiated.

[9] = test system: E. faecium CL 5053 (VanA); assay: microbe, parasite or virus in culture; type: cell-based; parameters: CL5053 (in vitro testing): unit not given here
Outline: (§10)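 NCCLS M7-A4-based broth microdilution with twofold serial dilutions, incubated at 35° C; medium BHI for enterococci and VISA/MRSA, cation-adjusted Mueller-Hinton for E. coli. Inoculum about 1-5×10^6 CFU/ml (enterococci) or 3-7×10^5 CFU/ml (others); MIC is lowest concentration with no visible growth, read at 18-20 hr for E. coli, 22-24 hr otherwise.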

[10] = test system: E. faecalis CL 4877 (VanB); assay: microbe, parasite or virus in culture; type: cell-based; parameters: CL4877 (in vitro testing): unit not given here; conditions: for MIC, CL4877: E. faecalis CL 4877 (VanB)
Outline: (§11)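 Twofold broth microdilution per modified NCCLS M7-A4, 35 °C. Enterococci and VISA/MRSA in BHI (VISA/MRSA precultured in TSB + 10% HS), E. coli in MH II. Inocula ~1-5×10^6 CFU/ml for enterococci, ~3-7×10^5 CFU/ml otherwise. MIC is the lowest concentration with no visible growth, read at 18-20 hr (E. coli) or 22-24 hr.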

[11] = test system: E. faecium CL 5242 (VanA); assay: microbe, parasite or virus in culture; type: cell-based; parameters: CL5242 (in vitro testing): unit not given here; conditions: for MIC, CL5242: E. faecium CL 5242 (VanA)
Outline: as §10

[12] = test system: CL 4931, CL 5053, CL 5242 and CL 4877; type: cell-based, E. faecium, E. faecalis; parameters: unit not given here
Outline: as §11

[13] = test system: E. faecium CL 4931 (VanA); assay: microbe, parasite or virus in culture; type: cell-based; parameters: CL4931 (in vitro testing): unit not given here; conditions: for MIC, CL4931: E. faecium CL 4931 (VanA)
Outline: as §10

[14] = mouse septicemia, S. aureus 2985 i.p. 1.8 × 10^7 cfu/mouse, single s.c. dose at 0 hr, survival seven days
[15] = Table 9, E. faecium CL 5053 (VanA)
[16] = Table 9, mean MIC over CL4931, CL5053, CL5242, CL4877

In the case of `CNC(CC(C)C)C(=O)NC1C(=O)NC(CC(N)=O)C(=O)NC2C(=O)NC3C(=O)NC(C(=O)NC(C(=O)O)c4cc(O)cc(O)c4-c4cc3ccc4O)C(O)c3ccc(c(Cl)c3)Oc3cc2cc(c3OC2OC(CN)C(O)C(O)C2OC2CC(C)(NCc3ccc(OCc4ccc(Cl)c(Cl)c4)cc3)C(O)C(C)O2)Oc2ccc(cc2Cl)C1O` (centres unmarked) [Compound 13, Glucos-6-amino-N-4-(3,4-dichlorobenzyloxy)benzyl-vancosamino-vancomycin], the MIC [1] is reported as 0.125 µg/mL (≈ 0.073 µM), the MIC [2] is reported as 0.25 µg/mL (≈ 0.146 µM) and the MIC [3] is reported as 0.12 µg/mL and 0.06 µg/mL. The MIC [4] was 0.06 µg/mL and 0.03 µg/mL, the MIC [5] was >64 µg/mL and 64 µg/mL and the MIC [6] was 16 µg/mL and 8 µg/mL. The bioavailability [7] was “unexpectedly greater bioavailability”, the clearance rate [7] was “faster clearance rate” and the tissue distribution [7] was “more favorable tissue distribution”. For the same compound, the ED50/MIC ([8]; S. aureus 2985, ratio of s.c. ED50 to MIC) was 3.12, the “ED0 (s.c.)” value [8, 14] was 0.195 mg/kg and the “ED50 (s.c.)” value [8, 14] was 0.390 mg/kg. The “ED100 (s.c.)” value [8, 14] was 0.780 mg/kg and the MIC ([9]; E. faecium CL 5053 (VanA), BHI broth) was 1 µg/mL and 2 µg/mL.
Compound `CNC(CC(C)C)C(=O)NC1C(=O)NC(CC(N)=O)C(=O)NC2C(=O)NC3C(=O)NC(C(=O)NC(C(=O)O)c4cc(O)cc(O)c4-c4cc3ccc4O)C(O)c3ccc(c(Cl)c3)Oc3cc2cc(c3OC2OC(CNCc3ccccc3)C(O)C(O)C2OC2CC(C)(NCc3ccc(-c4ccc(Cl)cc4)cc3)C(O)C(C)O2)Oc2ccc(cc2Cl)C1O` (centres unmarked) [Compound 190] has an MIC, CL4877 ([10]; Table 9) of 4 µg/mL (≈ 2.3 µM), an MIC, CL5242 ([11]; Table 9) of 2 µg/mL (≈ 1.15 µM) and an MIC, CL5053 [9, 15] of 8 µg/mL (≈ 4.6 µM). For the same compound, the Mean [12, 16] was 5.5 and the MIC, CL4931 ([13]; Table 9) was 8 µg/mL (≈ 4.6 µM).
With `C=Cc1ccccn1` [Compound 191, 2-pyridylethylene] the MIC, CL4877 ([10]; Table 9) was 16 µg/mL (≈ 152 µM), the MIC, CL5242 ([11]; Table 9) was 4 µg/mL (≈ 38 µM) and the MIC, CL5053 [9, 15] was 16 µg/mL (≈ 152 µM). The Mean [12, 16] was 13.0 and the MIC, CL4931 ([13]; Table 9) was 16 µg/mL (≈ 152 µM).
Work on `CNC(CC(C)C)C(=O)NC1C(=O)NC(CC(N)=O)C(=O)NC2C(=O)NC3C(=O)NC(C(=O)NC(C(=O)O)c4cc(O)cc(O)c4-c4cc3ccc4O)C(O)c3ccc(c(Cl)c3)Oc3cc2cc(c3OC2OC(CNCC3CCCO3)C(O)C(O)C2OC2CC(C)(NCc3ccc(-c4ccc(Cl)cc4)cc3)C(O)C(C)O2)Oc2ccc(cc2Cl)C1O` (centres unmarked) [Compound 192] yielded an MIC, CL4877 ([10]; Table 9) of 16 µg/mL (≈ 9.23 µM), an MIC, CL5242 ([11]; Table 9) of 4 µg/mL (≈ 2.31 µM) and an MIC, CL5053 [9, 15] of 16 µg/mL (≈ 9.23 µM). It also gave a Mean [12, 16] of 13.0 and an MIC, CL4931 ([13]; Table 9) of 16 µg/mL (≈ 9.23 µM).
For teicoplanin [reference compound], the MIC, CL4877 ([10]; Table 9) was 0.5 µg/mL, the MIC, CL4877 ([10]; Table 10) was 16 µg/mL and the “CL4877 (in vitro testing)” value ([10]; Tables 7 and 8, unit not given) was 0.5. The MIC, CL5242 ([11]; Table 9) was 256 µg/mL, the MIC, CL5242 ([11]; Table 10) was 256 µg/mL and the “CL5242 (in vitro testing)” value ([11]; Tables 7 and 8, unit not given) was 256. For the same compound, the MIC, CL5053 [9, 15] was greater than 1020 µg/mL, the MIC, CL5053 ([9]; Table 10, E. faecium CL 5053 (VanA)) was greater than 1020 µg/mL and the “CL5053 (in vitro testing)” value ([9]; Tables 7 and 8, unit not given) was greater than 1024. It also gave a Mean [12, 16] of 128.1, a Mean ([12]; Table 10, mean MIC over CL4931, CL5053, CL5242, CL4877) of 256.0 and a Mean ([12]; mean of CL4931, CL5053, CL5242, CL4877, unit not given) of 170.8. For the same compound, the MIC, CL4931 ([13]; Table 9) was 256 µg/mL, the MIC, CL4931 ([13]; Table 10) was 256 µg/mL and the “CL4931 (in vitro testing)” value ([13]; Tables 7 and 8, unit not given) was 256.
